Reference: PubChem BioAssay (NCI)
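Five compound concentrations were applied to cells in 96-well plates for 48 hours; endpoints were derived by simple linear interpolation of the resulting dose-response curve. GI50 = concentration required for 50% inhibition of growth. TGI: total growth inhibition.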

Experiments:
Experiment in all cases: growth of human tumour cells (NCI), 48 h
OVCAR-5 ovarian = tested on: OVCAR-5 ovarian
SK-MEL-28 melanoma = tested on: SK-MEL-28 melanoma
M14 melanoma = tested on: M14 melanoma
PC-3 prostate = tested on: PC-3 prostate
OVCAR-4 ovarian = tested on: OVCAR-4 ovarian
HT29 colon = tested on: HT29 colon
SF-295 CNS = tested on: SF-295 CNS
T-47D breast = tested on: T-47D breast
SNB-19 CNS = tested on: SNB-19 CNS
HCT-116 colon = tested on: HCT-116 colon

| SMILES | TGI (OVCAR-5 ovarian) [µM] | TGI (SK-MEL-28 melanoma) [µM] | TGI (M14 melanoma) [µM] | TGI (PC-3 prostate) [µM] | TGI (OVCAR-4 ovarian) [µM] | TGI (HT29 colon) [µM] | TGI (SF-295 CNS) [µM] | TGI (T-47D breast) [µM] | TGI (SNB-19 CNS) [µM] | TGI (HCT-116 colon) [µM] | GI50 (OVCAR-5 ovarian) [µM] | GI50 (SK-MEL-28 melanoma) [µM] | GI50 (M14 melanoma) [µM] | GI50 (PC-3 prostate) [µM] | GI50 (HT29 colon) [µM] | GI50 (SF-295 CNS) [µM] | GI50 (T-47D breast) [µM] | GI50 (SNB-19 CNS) [µM] | GI50 (HCT-116 colon) [µM] |
| --- | --- | --- | --- | --- | --- | --- | --- | --- | --- | --- | --- | --- | --- | --- | --- | --- | --- | --- | --- |
| O=C1OCc2cc3cc4c(cc3c(-c3ccc5c(c3)OCO5)c21)OCO4 (tested in a mixture with another compound) | 96.8 | > 100 | 32 | > 100 | > 100 | > 100 | 31.4 | > 100 | > 100 | 13.7 |  |  |  |  |  |  |  |  |  |
| CN1CC(CNC(=O)OCc2ccccc2)CC2c3cccc4c3c(cn4C)CC21 (stereo unspecified) | 4.91 | 3.03 | 4.68 | 6.28 |  | 3.27 | 4.76 | 4.67 | 3.99 | 4.18 | 1.98 | 1.62 | 2.14 | 2.07 | 1.4 | 2.09 | 2.26 | 1.8 | 1.72 |
| COc1ccc(OC)c(CC(C)N)c1 (stereo unspecified) |  | > 100 | > 100 |  | > 100 | > 100 | > 100 |  | > 100 | > 100 |  |  |  |  |  |  |  |  |  |
| COc1c(OC/C=C(\C)CCC=C(C)C)ccc2ccc(=O)oc12 | > 100 | > 100 | > 100 | > 100 | > 100 | > 100 | > 100 | > 100 | > 100 | > 100 |  |  |  |  |  |  |  |  |  |
| CC(C)(C)OC(=O)NC1CCC(C(C)(C)C)CC1 (stereo unspecified) | > 100 | > 100 |  |  | > 100 | > 87.3 | > 55.3 |  | > 100 | > 100 |  |  |  |  |  |  |  |  |  |
| C=CCSSCC=C | > 100 | > 100 | > 100 | > 100 | > 100 | > 100 | > 100 | > 100 | > 100 | > 100 |  |  |  |  |  |  |  |  |  |
| CCCC(=O)O.CCCC(=O)O.CCCC(=O)O.CCCC(=O)O.[Rh].[Rh] |  |  | 0.195 | 0.47 |  | 0.126 |  | 0.0985 |  | 0.0433 |  |  | 0.0569 | 0.0618 | 0.0334 |  | 0.0312 |  | 0.0198 |
| O=C1OC2CC=CC1C2 (stereo unspecified) | > 100 | > 100 |  |  | > 100 | > 100 | > 100 |  | > 100 | > 100 |  |  |  |  |  |  |  |  |  |
| SC1CCCN(Cc2ccccc2)C1 (stereo unspecified) | > 100 | > 100 | 36.9 | > 100 | > 100 | 45.8 | > 100 | 94.1 | > 100 | > 100 |  |  |  |  |  |  |  |  |  |
| O=C(/C=C/c1ccccc1)N1CCCCC1 | > 100 | > 100 | > 100 | > 100 | > 100 | > 100 | > 100 | > 100 | > 100 | > 100 |  |  |  |  |  |  |  |  |  |
| C=C1C(=O)OC2CC1CCC1(C)OC1CCC(C)=CCCC2(C)O (stereo unspecified) | 19.1 | 10.7 |  |  | 11.9 | 10.7 | 33.8 |  | 39.9 | 8.7 |  |  |  |  |  |  |  |  |  |
